Experimental data published in patent US10172868B2, “Substituted quinazolines for inhibiting kinase activity” (NeuPharma, Inc., priority 2013, dated 2019).

Columns and labels:
[1] = target: EGFR (ErbB1) (Homo sapiens (Human), UniProt P00533); test: Z'-LYTE kinase inhibition assay, EGFR; assay type: biochemical; conditions: read-out: % inhibition against EGFR (Compound at 0.041 μM)
Method in brief: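 IC50 values derived from 10-point, 3-fold compound dilution series (1% DMSO final) using Z'-LYTE fluorescence readout after 60-min development. Reaction: EGFR (1.1-5.25 ng) with 2 μM peptide, 60 min at room temperature in HEPES pH 7.5 buffer containing MgCl2, MnCl2, EGTA, DTT and BRIJ-35.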

[2] = target: EGFR (ErbB1) T790M L858R (Homo sapiens (Human), UniProt P00533, L858R/T790M); test: Z'-LYTE kinase inhibition assay, EGFR L858R/T790M; assay type: biochemical; conditions: for inhibition at 0.0137 µM: read-out: % inhibition against EGFR L858R/T790M (Compound at 0.0137 μM); for IC50: read-out: IC50 against EGFR L858R/T790M
Chain of EGFR (ErbB1) T790M L858R (P00533 25-1210 T790M/L858R): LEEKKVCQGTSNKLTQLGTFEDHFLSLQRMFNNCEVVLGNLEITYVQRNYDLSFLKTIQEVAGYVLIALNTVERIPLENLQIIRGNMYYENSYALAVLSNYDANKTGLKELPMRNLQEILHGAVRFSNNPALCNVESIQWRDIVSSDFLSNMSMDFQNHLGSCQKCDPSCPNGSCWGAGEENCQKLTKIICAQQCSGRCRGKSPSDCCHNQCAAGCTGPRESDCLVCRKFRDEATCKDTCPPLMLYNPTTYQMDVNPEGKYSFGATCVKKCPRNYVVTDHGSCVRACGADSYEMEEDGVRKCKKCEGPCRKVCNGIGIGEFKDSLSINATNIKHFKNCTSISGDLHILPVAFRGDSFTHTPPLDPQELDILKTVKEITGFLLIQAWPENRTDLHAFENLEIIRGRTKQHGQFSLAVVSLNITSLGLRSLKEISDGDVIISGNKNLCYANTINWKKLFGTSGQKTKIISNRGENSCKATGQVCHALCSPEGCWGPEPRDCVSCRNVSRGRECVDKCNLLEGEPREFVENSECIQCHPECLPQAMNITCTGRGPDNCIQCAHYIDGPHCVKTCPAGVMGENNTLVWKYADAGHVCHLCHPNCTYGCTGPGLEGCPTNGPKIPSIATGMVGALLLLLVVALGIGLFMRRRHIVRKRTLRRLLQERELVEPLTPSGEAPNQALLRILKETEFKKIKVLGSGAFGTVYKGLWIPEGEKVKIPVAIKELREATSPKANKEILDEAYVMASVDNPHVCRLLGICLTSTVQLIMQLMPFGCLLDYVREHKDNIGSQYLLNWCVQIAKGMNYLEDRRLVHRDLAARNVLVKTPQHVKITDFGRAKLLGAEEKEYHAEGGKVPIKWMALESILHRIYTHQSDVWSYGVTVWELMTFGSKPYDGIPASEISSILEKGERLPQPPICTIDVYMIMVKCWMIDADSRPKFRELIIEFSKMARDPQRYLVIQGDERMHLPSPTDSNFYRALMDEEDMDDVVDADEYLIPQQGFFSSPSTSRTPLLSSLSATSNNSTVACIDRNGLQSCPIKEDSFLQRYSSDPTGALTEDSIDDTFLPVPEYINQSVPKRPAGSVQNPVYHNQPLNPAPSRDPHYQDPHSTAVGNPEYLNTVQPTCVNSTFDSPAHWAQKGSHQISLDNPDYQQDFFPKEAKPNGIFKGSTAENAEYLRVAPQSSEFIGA
Method in brief: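 IC50 taken from 10-point, 3-fold serial dilutions tested in 1% DMSO. The mutant kinase and peptide were prepared in HEPES pH 6.5 buffer with BRIJ-35, MgCl2, EGTA and NaN3, then reacted with ATP for 1 h at room temperature. Development reagent was added for a further hour before the fluorescence readout.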

[3] = system: H1975 cells; test: Inhibition of cancer cell growth, MTT assay, H1975; conditions: Homo sapiens, NCI-H1975, 72 h, read-out: IC50 in H1975 cells
[4] = target: BTK (Homo sapiens (Human), UniProt Q06187); test: Z'-LYTE kinase inhibition assay, BTK; assay type: biochemical; conditions: for inhibition at 0.041 µM: compound at 0.041 μM, read-out: % inhibition against BTK
Chain of BTK (Q06187 whole entry): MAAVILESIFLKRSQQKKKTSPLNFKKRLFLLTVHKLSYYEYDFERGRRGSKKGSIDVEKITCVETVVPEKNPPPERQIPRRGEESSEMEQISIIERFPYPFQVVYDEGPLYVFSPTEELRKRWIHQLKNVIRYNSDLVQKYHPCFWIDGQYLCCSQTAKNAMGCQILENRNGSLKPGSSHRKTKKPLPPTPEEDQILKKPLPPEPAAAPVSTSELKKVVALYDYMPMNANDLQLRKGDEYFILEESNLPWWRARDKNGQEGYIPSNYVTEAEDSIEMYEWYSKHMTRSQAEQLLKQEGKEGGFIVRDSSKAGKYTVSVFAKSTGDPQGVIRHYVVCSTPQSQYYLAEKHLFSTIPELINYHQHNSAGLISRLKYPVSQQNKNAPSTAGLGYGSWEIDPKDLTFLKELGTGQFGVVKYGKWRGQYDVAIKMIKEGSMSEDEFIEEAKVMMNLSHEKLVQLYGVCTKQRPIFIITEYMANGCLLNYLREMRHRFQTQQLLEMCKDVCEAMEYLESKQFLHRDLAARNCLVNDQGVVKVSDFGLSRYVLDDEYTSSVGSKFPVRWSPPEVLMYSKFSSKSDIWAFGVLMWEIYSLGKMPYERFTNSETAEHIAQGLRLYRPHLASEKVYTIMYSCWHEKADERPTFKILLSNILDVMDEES
Procedure: Inhibitory activities of compounds against BTK, EGFR and EGFR mutants (EGFR L858R, EGFR T790M, EGFR L858R/T790M), FGFR1, FGFR2, JAK2, JAK3 and KDR were measured by Invitrogen using Z'-LYTE® Method as briefly described in the following.
Test Compounds are screened in 1% DMSO (final) in the well. For 10 point titrations, 3-fold serial dilutions are conducted from the starting concentration. All ATP Solutions are diluted to a 4× working concentration in Kinase Buffer (50 mM HEPES pH 7.5, 0.01% BRIJ-35, 10 mM MgCl2, 1 mM EGTA). Peptide/Kinase Mixtures are diluted to a 2× working concentration in the appropriate Kinase Buffers as described below.
(v) Peptide/Kinase Mixtures for Measurement of BTK:
The 2×BTK/Tyr 01 mixture is prepared in 50 mM HEPES pH 7.5. 0.01% BRIJ-35, 10 mM MgCl2, 1 mM EGTA.
The mixture is then incubated for another 60-minute at room temperature for development reaction. Finally fluorescence is read by plate reader.
To determine IC50 of a compound against EGFR, EGFR mutant and other kinases, a series of concentrations of the compound were tested for the inhibition. […] The scale utilized in Table 4 is as follows: +++ less than 100 nM, ++ 100-500 nM and + greater than 500 nM.

[5] = system: A431 cells; test: cells; conditions: Homo sapiens, A-431, 72 h, read-out: IC50 in A431 cells
[6] = system: HCC827 cells; test: cells; conditions: Homo sapiens, HCC827, 72 h, read-out: IC50 in HCC827 cells
Procedure: Taxol (as a positive control. Sigma) and compounds were dissolved in DMSO (Sigma), and the final concentration of DMSO in the medium was 1%. Tumor cells were plated in 96-well plates at densities of about 4000 cells/well of a 96-well plate and allowed to adhere/grow for 24 h. They were then treated with various concentrations of drug for 72 h, 3-(4,5-Dimethylthiazol-2-yl)-2,5-diphenyltetrazolium bromide (MTT, Sigma) was used to determine the number of viable cells at the time of compound addition and the number of cells remaining after 72 h compound exposure. The number of cells remaining after 72 h was compared to the number of viable cells at the time of compound addition by measuring the absorbance at 570 nm, allowing for the calculation of growth inhibition.
All concentrations of compounds were tested in triplicate and controls were averaged over 4 wells. IC50 was calculated by plotting the concentration of compound vs the percentage of inhibition in treated wells using GraphPad Prism 5.
The scale utilized in Tables 5 is as follows: +++ less than 100 nM; ++ between 100 nM and 500 nM; and + greater than 500 nM.

Chain of EGFR (ErbB1) (P00533 25-1210): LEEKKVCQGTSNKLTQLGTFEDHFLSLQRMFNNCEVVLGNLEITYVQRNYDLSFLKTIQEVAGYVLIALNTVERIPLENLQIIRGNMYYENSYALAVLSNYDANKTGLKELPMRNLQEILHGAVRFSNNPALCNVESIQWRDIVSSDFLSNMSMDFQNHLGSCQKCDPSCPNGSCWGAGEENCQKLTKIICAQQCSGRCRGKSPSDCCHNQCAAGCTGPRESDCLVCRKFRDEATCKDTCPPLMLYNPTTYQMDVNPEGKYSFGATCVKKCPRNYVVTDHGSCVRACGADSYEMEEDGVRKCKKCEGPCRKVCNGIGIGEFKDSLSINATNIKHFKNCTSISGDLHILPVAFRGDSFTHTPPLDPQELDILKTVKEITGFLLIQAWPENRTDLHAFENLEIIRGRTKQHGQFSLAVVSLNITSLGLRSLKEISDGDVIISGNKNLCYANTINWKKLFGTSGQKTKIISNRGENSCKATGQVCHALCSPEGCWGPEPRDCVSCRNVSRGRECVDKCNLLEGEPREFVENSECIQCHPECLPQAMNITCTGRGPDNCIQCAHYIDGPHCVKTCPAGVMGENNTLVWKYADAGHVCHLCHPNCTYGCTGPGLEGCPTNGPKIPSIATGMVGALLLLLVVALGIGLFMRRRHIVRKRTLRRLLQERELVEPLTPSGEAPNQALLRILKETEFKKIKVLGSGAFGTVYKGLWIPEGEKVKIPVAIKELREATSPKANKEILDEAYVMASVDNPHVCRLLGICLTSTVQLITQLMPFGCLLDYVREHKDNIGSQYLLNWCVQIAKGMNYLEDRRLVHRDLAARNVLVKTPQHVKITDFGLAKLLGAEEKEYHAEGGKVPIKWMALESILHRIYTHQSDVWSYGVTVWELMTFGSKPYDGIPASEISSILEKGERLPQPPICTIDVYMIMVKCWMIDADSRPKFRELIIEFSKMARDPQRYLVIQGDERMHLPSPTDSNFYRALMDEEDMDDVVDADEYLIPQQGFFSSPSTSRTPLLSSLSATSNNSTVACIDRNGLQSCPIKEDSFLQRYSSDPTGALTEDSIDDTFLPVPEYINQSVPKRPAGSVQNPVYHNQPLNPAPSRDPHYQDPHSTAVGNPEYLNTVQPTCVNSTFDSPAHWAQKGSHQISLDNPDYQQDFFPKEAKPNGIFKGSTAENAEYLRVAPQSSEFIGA

Row | SMILES | inhibition at 0.041 µM [1] | inhibition at 0.0137 µM [2] | IC50 [3] | inhibition at 0.041 µM [4] | IC50 [2] | IC50 [5] | IC50 [6] | IC50 ([4]; read-out: IC50 against BTK)
1 | C=CC(=O)Nc1cccc(-c2cccc3cnc(Nc4ccc(OC5CCN(C(C)=O)CC5)cc4)nc23)c1 [Example C125, N-(3-(2-((4-((1-acetylpiperidin-4-yl)oxy)phenyl)amino)quinazolin-8-yl)phenyl)acrylamide] | < 50% | < 50% | < 100 nM | > 50% |  |  |  | 
2 | C=CC(=O)Nc1cccc(-c2cccc3cnc(Nc4ccc(NC5CCOCC5)cc4)nc23)c1 [Example C111, N-(3-(2-((4-((tetrahydro-2H-pyran-4-yl)amino)phenyl)amino)quinazolin-8-yl)phenyl)acrylamide] | < 50% | < 50% | < 100 nM | > 50% |  |  |  | 
3 | C=CC(=O)Nc1cccc(-c2cccc3cnc(Nc4ccc(N5CCN(CC)CC5)cc4)nc23)c1F [Example C038, N-(3-(2-((4-(4-ethylpiperazin-1-yl)phenyl)amino)quinazolin-8-yl)-2-fluorophenyl)acrylamide] |  |  | < 100 nM |  |  |  | < 100 nM | 
4 | C=CC(=O)Nc1cccc(-c2cccc3cnc(Nc4ccc(NC5CCN(C(C)=O)CC5)cc4)nc23)c1 [Example C120, N-(3-(2-((4-((1-acetylpiperidin-4-yl)amino)phenyl)amino)quinazolin-8-yl)phenyl)acrylamide] | < 50% | < 50% | < 100 nM | > 50% |  |  |  | 
5 | C=CC(=O)Nc1cccc(-c2cccc3cnc(Nc4ccc(NC5CN(C(C)=O)C5)cc4)nc23)c1 [Example C124, N-(3-(2-((4-((1-acetylazetidin-3-yl)amino)phenyl)amino)quinazolin-8-yl)phenyl)acrylamide] | < 50% | < 50% | < 100 nM | > 50% |  |  |  | 
6 | C=CC(=O)Nc1cccc(-c2cccc3cnc(Nc4ccc(OCCO)cc4)nc23)c1 [Example C108, N-(3-(2-((4-(2-hydroxyethoxy)phenyl)amino)quinazolin-8-yl)phenyl)acrylamide] |  |  | < 100 nM |  | < 100 nM | > 500 nM |  | < 100 nM
7 | C=CC(=O)Nc1cccc(-c2cccc3cnc(Nc4ccc(OCCN(C)C)cc4)nc23)c1 [Example C110, N-(3-(2-((4-(2-(dimethylamino)ethoxy)phenyl)amino)quinazolin-8-yl)phenyl)acrylamide] | < 50% | > 50% | < 100 nM | > 50% | < 100 nM | < 100 nM |  | 
8 | C=CC(=O)Nc1cccc(-c2cccc3cnc(Nc4ccc(NC5CCN(CCF)CC5)cc4)nc23)c1 [Example C138, N-(3-(2-((4-((1-(2-fluoroethyl)piperidin-4-yl)amino)phenyl)amino)quinazolin-8-yl)phenyl)acrylamide] | > 50% | > 50% | < 100 nM |  | < 100 nM | 100 to 500 nM |  | 

Second part, led by results:

Row | inhibition at 0.041 µM [1] | inhibition at 0.0137 µM [2] | IC50 [3] | inhibition at 0.041 µM [4] | IC50 [2] | IC50 [5] | IC50 [6] | SMILES | IC50 ([4]; read-out: IC50 against BTK)
9 | < 50% | > 50% | < 100 nM | > 50% | < 100 nM | 100 to 500 nM |  | C=CC(=O)Nc1cccc(-c2cccc3cnc(Nc4ccc(O[C@H]5CCN(C)C5)cc4)nc23)c1 [Example C121, (S)-N-(3-(2-((4-((1-methylpyrrolidin-3-yl)oxy)phenyl)amino)quinazolin-8-yl)phenyl)acrylamide] | 
10 | < 50% | < 50% | 100 to 500 nM | > 50% |  |  |  | C=CC(=O)Nc1cccc(-c2cccc3cnc(Nc4ccc(N5CCN(C)C(=O)C5)cc4)nc23)c1 [Example C116, N-(3-(2-((4-(4-methyl-3-oxopiperazin-1-yl)phenyl)amino)quinazolin-8-yl)phenyl)acrylamide] | 
11 | > 50% | > 50% | < 100 nM | > 50% | < 100 nM | < 100 nM |  | C=CC(=O)Nc1cccc(-c2cccc3cnc(Nc4ccc(O[C@@H]5CCN(C)C5)cc4)nc23)c1 [Example C123, (R)-N-(3-(2-((4-((1-methylpyrrolidin-3-yl)oxy)phenyl)amino)quinazolin-8-yl)phenyl)acrylamide] | 
12 | < 50% | < 50% | 100 to 500 nM | > 50% |  |  |  | C=CC(=O)Nc1cccc(-c2cccc3cnc(Nc4ccc(N[C@@H]5CCOC5)cc4)nc23)c1 [Example C115, (R)-N-(3-(2-((4-((tetrahydrofuran-3-yl)amino)phenyl)amino)quinazolin-8-yl)phenyl)acrylamide] | 
13 | < 50% | < 50% | < 100 nM | > 50% |  |  |  | C=CC(=O)Nc1cccc(-c2cccc3cnc(Nc4ccc(N[C@H]5CCOC5)cc4)nc23)c1 [Example C114, (S)-N-(3-(2-((4-((tetrahydrofuran-3-yl)amino)phenyl)amino)quinazolin-8-yl)phenyl)acrylamide] | 
14 | > 50% | > 50% | < 100 nM | > 50% | < 100 nM | < 100 nM |  | C=CC(=O)Nc1cccc(-c2cccc3cnc(Nc4ccc(OC5CCN(C)CC5)cc4)nc23)c1 [Example C126, N-(3-(2-((4-((1-methylpiperidin-4-yl)oxy)phenyl)amino)quinazolin-8-yl)phenyl)acrylamide] | 
15 | < 50% | < 50% | < 100 nM | > 50% |  |  |  | C=CC(=O)Nc1cccc(-c2cccc3cnc(Nc4ccc(OC5CN(C(C)=O)C5)cc4)nc23)c1 [Example C122, N-(3-(2-((4-((1-acetylazetidin-3-yl)oxy)phenyl)amino)quinazolin-8-yl)phenyl)acrylamide] | 
16 | < 50% | < 50% | < 100 nM | > 50% |  |  |  | C=CC(=O)Nc1cccc(-c2cccc3cnc(Nc4ccc(O[C@H]5CCOC5)cc4)nc23)c1 [Example C113, (S)-N-(3-(2-((4-((tetrahydrofuran-3-yl)oxy)phenyl)amino)quinazolin-8-yl)phenyl)acrylamide] | 
17 | < 50% | < 50% | < 100 nM | > 50% |  |  |  | C=CC(=O)Nc1cccc(-c2cccc3cnc(Nc4ccc(O[C@@H]5CCOC5)cc4)nc23)c1 [Example C119, (R)-N-(3-(2-((4-((tetrahydrofuran-3-yl)oxy)phenyl)amino)quinazolin-8-yl)phenyl)acrylamide] | 
18 | < 50% | < 50% | < 100 nM | > 50% |  |  |  | C=CC(=O)Nc1cccc(-c2cccc3cnc(Nc4ccc(OC5CCOCC5)cc4)nc23)c1 [Example C112, N-(3-(2-((4-((tetrahydro-2H-pyran-4-yl)oxy)phenyl)amino)quinazolin-8-yl)phenyl)acrylamide] | 
19 | < 50% | < 50% | 100 to 500 nM | > 50% |  |  |  | C=CC(=O)Nc1cccc(-c2cccc3cnc(Nc4ccc(N5CCNC(=O)C5)cc4)nc23)c1 [Example C117, N-(3-(2-((4-(3-oxopiperazin-1-yl)phenyl)amino)quinazolin-8-yl)phenyl)acrylamide] | 
20 | < 50% | > 50% | < 100 nM | > 50% | < 100 nM | 100 to 500 nM |  | C=CC(=O)Nc1cccc(-c2cccc3cnc(Nc4ccc(OCCN5CCC5)cc4)nc23)c1 [Example C109, N-(3-(2-((4-(2-(azetidin-1-yl)ethoxy)phenyl)amino)quinazolin-8-yl)phenyl)acrylamide] | 
21 | < 50% | < 50% | 100 to 500 nM |  |  | > 500 nM |  | C=CC(=O)Nc1cccc(-c2cccc3cnc(Nc4ccc(N5CCOC5=O)cc4)nc23)c1 [Example C091, N-(3-(2-((4-(2-oxooxazolidin-3-yl)phenyl)amino)quinazolin-8-yl)phenyl)acrylamide] | 
